Reference: patent US20260042764A1, “COMPOSITIONS AND METHODS FOR INHIBITION OF KRAS” (TheRas, Inc., priority 2022, published 2026)

How the values were obtained:
[1] = molecular target: T1, Avi-KRAS G12D (1-169) GppNHp/RAF1 RBD-3xFLAG (52-151) (Homo sapiens, UniProt P01116, G12D); assay: Raf1-KRAS G12D-GppNHP disruption HTRF assay (Biological Example 1); type: binding
T1 construct: Avi-KRAS G12D (1-169)
Method in brief: (§1)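 HTRF PPI disruption; buffer 50 mM Tris pH 7.5, 100 mM NaCl, 5 mM MgCl2, 0.1% BSA, 0.01% Tween, 10% DMSO. Protein mix 1 h RT shaking, reagent mix 1 h RT shaking. Data as % activity vs DMSO (100%).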

[2] = molecular target: T2, Avi-KRAS WT (1-169) GppNHp/RAF1 RBD-3xFLAG (52-151) (Homo sapiens, UniProt P01116); assay: Raf1-KRAS WT-GppNHP disruption HTRF assay (Biological Example 1); type: binding
T2 construct: Avi-KRAS WT (1-169)
Method in brief: as §1

GP2d cells (KRAS G12D) = assay: Cell-based pERK HTRF assay in GP2d cell (Biological Example 2); details: GP2d, GP2d (KRAS G12D) cells, pERK HTRF
Method in brief: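 HTRF read-out of pERK (excitation 320 nm, emission 615 nm) after lysates sat 4–24 h at room temperature with Eu cryptate and d2 antibodies.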

SW620 cells (KRAS G12V) = assay: Cell-based pERK HTRF assay in SW620 cell (Biological Example 4); details: Homo sapiens, SW-620, SW620 (KRAS G12V) cells, pERK HTRF
Protocol: A pERK assay (Perkin Elmer) was used to determine the effectiveness of compounds in disrupting KRAS G12V protein/effector signaling in cells.
On Day 1, cells (SW620) were seeded into 96-well plates at 3×10^4 cells/well in 80 μL complete growth media (RPMI, 10% FBS).
On Day 2, cells were treated with compounds at 0.25% DMSO. The source plate was created with compounds diluted in media at 5-fold the final assay concentration. The compounds were run in a 9-point concentration curve starting at 1 μM, with a half-log dilution between concentrations. Twenty μL was transferred onto the cell plates (final volume in wells was 100 μL). Plates were harvested after 4 h incubation by aspirating media and adding kit-supplied 1x supplemented lysis buffer to all wells (50 μL per well). Plates were then placed on a plate shaker and incubated at 850 rpm for an additional 30 min.
Antibody mixture solution was prepared by diluting aliquoted d2 and Eu Cryptate antibodies 1:20 in kit supplied detection buffer and mixing the diluted antibodies solutions (1:1 v:v).
Samples were homogenized by pipetting up and down and then transferred (16 μL of cell lysates) from the 96-well cell culture plate to two wells of the HTRF 384-well detection plate containing the antibody solution. Plates were centrifuged (524 g for Imin) and allowed to incubate between 4 and 24 h at room temperature. […] Plates were centrifuged again (524 g for 1 min), then analyzed on the En Vision plate reader using the following settings: Excitation 320 nm, Bandwidth 75 nm; Emission 615 nm, Bandwidth 85 nm; Gain 100%; Flashes 100; Lag 60 μs.

[3] = molecular target: T3, Avi-KRAS G12V (1-169) GppNHp/RAF1 RBD-3xFLAG (52-151) (Homo sapiens, UniProt P01116, G12V); assay: Raf1-KRAS G12V-GppNHP disruption HTRF assay (Biological Example 1); type: binding
T3 construct: Avi-KRAS G12V (1-169)
Method in brief: as §1

[4] = molecular target: T4, Avi-KRAS G12R (1-169) GppNHp/RAF1 RBD-3xFLAG (52-151) (Homo sapiens, UniProt P01116, G12R); assay: Raf1-KRAS G12R-GppNHP disruption HTRF assay (Biological Example 1); type: binding
T4 construct: Avi-KRAS G12R (1-169)
Method in brief: as §1

T3 sequence (P01116 1-169 isoform P01116-2 G12V): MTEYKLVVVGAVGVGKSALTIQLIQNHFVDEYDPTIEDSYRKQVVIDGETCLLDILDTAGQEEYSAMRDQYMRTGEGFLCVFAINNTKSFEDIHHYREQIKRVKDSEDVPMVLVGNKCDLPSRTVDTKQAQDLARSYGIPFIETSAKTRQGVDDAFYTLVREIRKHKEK
T2 sequence (P01116 1-169 isoform P01116-2): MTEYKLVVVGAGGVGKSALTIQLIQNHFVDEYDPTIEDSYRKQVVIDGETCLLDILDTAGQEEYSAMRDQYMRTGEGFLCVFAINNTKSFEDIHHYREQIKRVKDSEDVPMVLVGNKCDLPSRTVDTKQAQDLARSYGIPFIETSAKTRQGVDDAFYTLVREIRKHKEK
T4 sequence (P01116 1-169 isoform P01116-2 G12R): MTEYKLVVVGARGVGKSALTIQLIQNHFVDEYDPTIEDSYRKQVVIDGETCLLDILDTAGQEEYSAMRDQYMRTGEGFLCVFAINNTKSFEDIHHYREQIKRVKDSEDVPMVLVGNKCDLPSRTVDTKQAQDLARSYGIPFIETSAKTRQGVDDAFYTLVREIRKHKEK
T1 sequence (P01116 1-169 isoform P01116-2 G12D): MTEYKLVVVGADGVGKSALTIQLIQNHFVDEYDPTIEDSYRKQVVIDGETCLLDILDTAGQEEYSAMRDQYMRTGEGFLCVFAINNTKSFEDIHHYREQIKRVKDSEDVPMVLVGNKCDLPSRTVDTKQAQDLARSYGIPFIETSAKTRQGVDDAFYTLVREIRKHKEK

Row | SMILES | IC50 ([1]; KRAS G12D-GppNHp/RAF1 RBD HTRF) [µM] | IC50 ([2]; KRAS WT-GppNHp/RAF1 RBD HTRF) [µM] | IC50 (GP2d cells (KRAS G12D)) [µM] | IC50 (SW620 cells (KRAS G12V)) [µM] | IC50 ([3]; KRAS G12V-GppNHp/RAF1 RBD HTRF) [µM] | IC50 ([4]; KRAS G12R-GppNHp/RAF1 RBD HTRF) [µM] | IC50 ([1]; KRAS G12D, GppNHp-loaded, Table 11) [µM] | IC50 ([2]; KRAS WT, GppNHp-loaded, Table 11) [µM] | IC50 ([3]; KRAS G12V, GppNHp-loaded, Table 11) [µM] | IC50 ([4]; KRAS G12R, GppNHp-loaded, Table 11) [µM]
1 | CCN(c1nc(OC[C@@]23CCCN2C[C@H](F)C3)nc2c(F)c(-c3ccc(F)c4sc(N)c(C#N)c34)c(C(F)(F)F)cc12)[C@@H]1C[C@H](C)N(C(=O)N(C)C)C1 (atropisomer, axis not shown) [Compound 545] | 0.1 to 1 | 0.1 to 1 | < 0.1 | < 0.1 | 1 to 10 | 1 to 10 | – | – | – | –
2 | CCN(c1nc(OC[C@@]23CCCN2C[C@H](F)C3)nc2c(F)c(-c3ccc(F)c4sc(N)c(C#N)c34)c(C(F)(F)F)cc12)[C@H]1CCN(C(=O)CC#N)C1 (atropisomer, axis not shown) [Compound 546] | < 0.1 | < 0.1 | < 0.1 | < 0.1 | < 0.1 | < 0.1 | – | – | – | –
3 | CCN(c1nc(OC[C@@]23CCCN2C[C@H](F)C3)nc2c(F)c(-c3ccc(F)c4sc(N)c(C#N)c34)c(C(F)(F)F)cc12)[C@H]1CCN(C(=O)C(F)F)C1 (atropisomer, axis not shown) [Compound 547] | < 0.1 | < 0.1 | < 0.1 | < 0.1 | < 0.1 | < 0.1 | – | – | – | –
4 | CCN(c1nc(OC[C@@]23CCCN2C[C@H](F)C3)nc2c(F)c(-c3ccc(F)c4sc(N)c(C#N)c34)c(C(F)(F)F)cc12)[C@H]1CCN(C(=O)C2CC(F)(F)C2)C1 (atropisomer, axis not shown) [Compound 550] | < 0.1 | < 0.1 | < 0.1 | < 0.1 | 0.1 to 1 | < 0.1 | – | – | – | –
5 | CCN(c1nc(OC[C@@]23CCCN2C[C@H](F)C3)nc2c(F)c(-c3ccc(F)c4sc(N)c(C#N)c34)c(C(F)(F)F)cc12)[C@H]1CCN(C(=O)C2CCC2)C1 (atropisomer, axis not shown) [Compound 551] | < 0.1 | < 0.1 | < 0.1 | < 0.1 | < 0.1 | < 0.1 | – | – | – | –
6 | CCN(c1nc(OC[C@@]23CCCN2C[C@H](F)C3)nc2c(F)c(-c3ccc(F)c4sc(N)c(C#N)c34)c(C(F)(F)F)cc12)[C@H]1CCN(C(=O)c2ccno2)C1 (atropisomer, axis not shown) [Compound 552] | < 0.1 | < 0.1 | < 0.1 | < 0.1 | < 0.1 | < 0.1 | – | – | – | –
7 | CCN(c1nc(OC[C@@]23CCCN2C[C@H](F)C3)nc2c(F)c(-c3ccc(F)c4sc(N)c(C#N)c34)c(C(F)(F)F)cc12)[C@H]1CCN(C(=O)N2CCOCC2)C1 (atropisomer, axis not shown) [Compound 553] | < 0.1 | < 0.1 | < 0.1 | < 0.1 | < 0.1 | < 0.1 | – | – | – | –
8 | CCN(c1nc(OC[C@@]23CCCN2C[C@H](F)C3)nc2c(F)c(-c3ccc(F)c4sc(N)c(C#N)c34)c(C(F)(F)F)cc12)[C@H]1CCN(C(=O)CCC#N)C1 (atropisomer, axis not shown) [Compound 555] | < 0.1 | < 0.1 | < 0.1 | < 0.1 | < 0.1 | < 0.1 | – | – | – | –
9 | CN(c1nc(OC[C@@]23CCCN2C[C@H](F)C3)nc2c(F)c(-c3ccc(F)c4sc(N)c(C#N)c34)c(C(F)(F)F)cc12)C1CC(F)C1 (stereo partly shown) [Compound 161] | – | – | – | < 0.1 | – | – | 0.1 to 1 | 0.1 to 1 | 0.1 to 1 | 0.1 to 1
10 | CCN(c1nc(OC[C@@]23CCCN2C[C@H](F)C3)nc2c(F)c(-c3ccc(F)c4sc(N)c(C#N)c34)c(C(F)(F)F)cc12)[C@@H]1CCN(C(C)=O)[C@@H]1C [Compound 407] | 0.1 to 1 | 0.1 to 1 | – | < 0.1 | 0.1 to 1 | 0.1 to 1 | – | – | – | –
